According to the supplement of paper PMC10331698:
± gives the standard deviation of the averaged measurements.

Experiments:
Experiment in all cases: level (log10 ratio to DMSO vehicle control); higher = higher biomarker level / cell amount than vehicle control
Conditions in all cases: in DMSO
[1] = compound: C=C(C)C(=O)OCC(F)(F)C(F)(F)C(F)(F)C(F)(F)C(F)(F)C(F)(F)C(F)(F)F
Procedure: (§1)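 BioMAP Diversity Plus panel of 12 human primary cell co-culture systems (3C, 4H, LPS, SAg, BT, BF4T, BE3C, CASM3C, HDF3CGF, KF3CT, MyoF, Mphg). Compounds were added 1 h before stimulation and left for 24 h (MyoF 48 h; BT 72 h for soluble read-outs or 6 d for IgG). Biomarkers were read by ELISA, cytotoxicity by SRB, PBMC viability and proliferation by Alamar Blue. Each well value was divided by the mean of 8 DMSO control wells on the same plate and log10 transformed; duplicate blinded samples were tested at 4 concentrations.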

[2] = compound: C=CC(=O)OCCC(F)(F)C(F)(F)C(F)(F)C(F)(F)F [2-(Perfluorobutyl)ethyl acrylate]
Procedure: as §1

Azathioprine = compound: Cn1cnc([N+](=O)[O-])c1Sc1ncnc2[nH]cnc12 [Azathioprine]
Procedure: as §1

[3] = compound: O=C(O)C(F)(F)C(F)(F)C(F)(F)C(F)(F)C(F)(F)C(F)(F)C(F)(F)C(F)(F)C(F)(F)C(F)(F)C(F)(F)C(F)(F)C(F)(F)F [Perfluorotetradecanoic acid]
Procedure: as §1

[4] = compound: O=C(O)C(F)(F)C(F)(F)C(F)(F)C(F)(F)C(F)(F)C(F)(F)C(F)(F)C(F)(F)C(F)(F)C(F)(F)C(F)(F)C(F)(F)F [Perfluorotridecanoic acid]
Procedure: as §1

[5] = compound: O=C(O)CCC(F)(F)C(F)(F)C(F)(F)F [3:3 Fluorotelomer carboxylic acid]
Procedure: as §1

Test System	level (log10) ([1]; 6700 nM)	level (log10) ([1]; 20000 nM)	level (log10) ([2]; 6700 nM)	level (log10) ([2]; 20000 nM)	level (log10) ([2]; 60000 nM)	level (log10) (Azathioprine; 1400 nM)	level (log10) (Azathioprine; 4200 nM)	level (log10) (Azathioprine; 13000 nM)	level (log10) (Azathioprine; 38000 nM)	level (log10) ([3]; 6700 nM)	level (log10) ([3]; 20000 nM)	level (log10) ([4]; 1500 nM)	level (log10) ([4]; 4400 nM)	level (log10) ([4]; 13000 nM)	level (log10) ([4]; 40000 nM)	level (log10) ([5]; 6700 nM)	level (log10) ([5]; 20000 nM)	level (log10) ([5]; 60000 nM)
lMphg:CCL3/MIP-1alpha	-0.032 ± 0.0028	0.007 ± 0.045	-0.0105 ± 0.0064	-0.0115 ± 0.029	0.021 ± 0.013	-0.0005 ± 0.00071	-0.0235 ± 0.021	-0.0225 ± 0.03	-0.0975 ± 0.029	-0.02 ± 0.042	-0.004 ± 0.02	0.0065 ± 0.023	-0.0135 ± 0.013	0.004 ± 0.021	0.0345 ± 0.032	-0.0105 ± 0.047	-0.027 ± 0.047	0.002 ± 0.02
lMphg:CD40	-0.0265 ± 0.0064	-0.025 ± 0.0042	-0.002	-0.0165 ± 0.0064	-0.0255 ± 0.0064	-0.0125 ± 0.04	-0.0205 ± 0.013	-0.025 ± 0.0014	-0.106 ± 0.03	-0.0405 ± 0.036	-0.031 ± 0.014	-0.0245 ± 0.021	-0.0355 ± 0.0064	-0.051 ± 0.0071	-0.2 ± 0.057	-0.0195 ± 0.064	-0.028 ± 0.067	0.0065 ± 0.018
lMphg:CD62E/E-Selectin	-0.0215 ± 0.0021	-0.021 ± 0.0042	0.01 ± 0.0071	-0.006 ± 0.0099	0.001 ± 0.0042	-0.037 ± 0.045	-0.031 ± 0.048	-0.064 ± 0.0085	-0.148 ± 0.051	0.0125 ± 0.03	-0.006 ± 0.044	-0.038 ± 0.0028	-0.045 ± 0.0014	-0.0395 ± 0.029	-0.007 ± 0.0071	0.014 ± 0.025	0.028 ± 0.023	0.0435 ± 0.023
lMphg:CD69	-0.0135 ± 0.018	-0.004 ± 0.038	-0.0065 ± 0.016	-0.006 ± 0.011	-0.024 ± 0.0057	0.027 ± 0.013	-0.0205 ± 0.029	-0.004 ± 0.0028	0.022 ± 0.011	-0.02 ± 0.038	-0.007 ± 0.089	-0.0045 ± 0.019	-0.0685 ± 0.018	-0.066 ± 0.04	-0.0555 ± 0.013	0.013 ± 0.013	0.053 ± 0.047	0.035 ± 0.037
lMphg:CD106/VCAM-1	-0.0385 ± 0.0035	-0.0535 ± 0.026	-0.009 ± 0.0099	-0.0035 ± 0.028	-0.0405 ± 0.037	0 ± 0.0057	-0.003 ± 0.0085	-0.036	-0.0835 ± 0.025	-0.0325 ± 0.028	-0.017 ± 0.0014	-0.018 ± 0.0014	-0.0305 ± 0.012	-0.0715 ± 0.018	-0.384 ± 0.1	0.002 ± 0.013	0.009 ± 0.0014	0.0045 ± 0.013
lMphg:CXCL8/IL-8	-0.042 ± 0.021	-0.0315 ± 0.047	0.013 ± 0.014	0.0045 ± 0.0021	0.0055 ± 0.0078	-0.0045 ± 0.047	-0.042 ± 0.021	0.0375 ± 0.0064	0.0825 ± 0.019	0.0035 ± 0.032	0.0215 ± 0.049	-0.0575 ± 0.0021	-0.0665 ± 0.012	-0.0245 ± 0.00071	-0.0175 ± 0.021	-0.0215 ± 0.059	-0.001 ± 0.051	0.025 ± 0.02
lMphg:IL-1alpha	-0.0265 ± 0.029	0.005 ± 0.13	-0.026 ± 0.028	-0.033 ± 0.0028	0.0145 ± 0.04	0.0185 ± 0.067	0.0045 ± 0.0078	-0.0015 ± 0.023	-0.005 ± 0.057	0.021 ± 0.068	0.004 ± 0.05	-0.0415 ± 0.0035	-0.0175 ± 0.0078	-0.0105 ± 0.052	-0.0015 ± 0.0092	-0.0005 ± 0.11	0 ± 0.057	0.028 ± 0.059
lMphg:M-CSF	-0.0185 ± 0.0035	-0.0025 ± 0.033	-0.0155 ± 0.029	-0.011 ± 0.028	-0.001 ± 0.018	0.004 ± 0.018	-0.0045 ± 0.0021	-0.032 ± 0.011	-0.0885 ± 0.0064	-0.0065 ± 0.03	-0.0175 ± 0.015	-0.005 ± 0.0057	-0.006 ± 0.016	0.002 ± 0.0099	-0.011 ± 0.0099	-0.021 ± 0.024	-0.008 ± 0.0085	-0.0115 ± 0.0021
lMphg:SRB	-0.012 ± 0.016	-0.015 ± 0.016	0.0085 ± 0.0078	-0.0095 ± 0.0064	-0.0155 ± 0.012	-0.0055 ± 0.0078	-0.0055 ± 0.005	-0.014 ± 0.0085	-0.0365 ± 0.0021	-0.0035 ± 0.0035	-0.0105 ± 0.0078	-0.009 ± 0.0085	-0.0135 ± 0.0035	0.002 ± 0.0057	-0.0085 ± 0.00071	-0.0305 ± 0.026	-0.0105 ± 0.021	-0.013 ± 0.0042
lMphg:SRB-Mphg	0.0095 ± 0.052	0.0365 ± 0.03	0.012 ± 0.011	0.0075 ± 0.016	-0.006 ± 0.021	-0.001 ± 0.031	-0.0085 ± 0.0021	-0.0155 ± 0.011	-0.0235 ± 0.0021	0.0035 ± 0.011	0.006 ± 0.031	0.003 ± 0.023	0.004 ± 0.0071	-0.0155 ± 0.022	0.0125 ± 0.019	-0.019 ± 0.13	-0.047 ± 0.1	-0.048 ± 0.12
lMphg:sIL-10	-0.0725 ± 0.016	-0.121 ± 0.31	-0.0435 ± 0.011	-0.07 ± 0.021	-0.0715 ± 0.054	0.0005 ± 0.12	-0.077 ± 0.047	-0.117 ± 0.059	-0.311 ± 0.081	-0.032 ± 0.0014	-0.0315 ± 0.033	-0.044 ± 0.0057	-0.039 ± 0.0042	-0.022 ± 0.013	-0.044 ± 0.02	-0.049 ± 0.073	-0.035 ± 0.076	-0.087 ± 0.016
